Assay results published in US20060058966A1, “Methods and systems for guiding selection of chemotherapeutic agents” (priority 2004, published 2006).

Columns and labels:
Format in all cases: cell-based, human
[1] = system: tumor of a pancreatic cancer patient; test: ATP-TCA assay of tumor samples of a pancreatic cancer patient; conditions: pancreatic cancer sample
Protocol: Briefly, the ATP-TCA assay is conducted as follows. First, aseptically obtained solid tumor specimens are dispersed using, e.g. surgical scissors and scalpels. Subsequently, tissue fragments of 0.5 to 2 mm in diameter are enzymatically dissociated into a cell suspension of single cells and small aggregates by incubation for 4-18 h in 5-10 ml sterile collagenase-containing enzyme preparation such as tumor dissociation enzyme preparation, TDE. Commercially available from Atlantic Scientific, Fort Lauderdale, Fla., or from DCS Innovative Diagnostic Systeme GmbH, Hamburg, Germany. Alternatively, tissue fragments are dissociated using 1.5 mg/ml collagenase H (Sigma Chemical, St. Lewis, Mo.) or by mechanical desegregation. […] A serum-free Complete Assay medium (CAM) available from DCS Innovative Diagnostik Systeme GmbH, Hamburg, Germany is added and cell suspensions then are adjusted to a final concentration of 1-2×10^5 viable cells per ml. […] Test drug concentrations (TDC) are prepared directly on the plates by serial 1:2-dilutions of the individual stock solutions. […] Subsequently, a sample, e.g. 100 μl of single cell suspension (i.e., 10,000- 20,000 cells) is added to each well. Cultures are incubated at 37° C. and 95% humidity in a 95% air, 5% CO2 atmosphere. After 5-7 days of incubation, another cytological analysis is performed in untreated MO controls. Subsequently, intracellular ATP is extracted and stabilized. Then 50 μl aliquots of each lysate is then transferred to a liminometer, e.g. a LB-953 liminometer (Berthold, Wildbad, Germany). ATP is measured, e.g. by the “firefly” light reaction after automatically pipetting 55 μl of Luciferin-Luciferase-Reagent (Lu-Lu) to each cell extract. Luminescence response expressed as Relative Light Units (RLU=photons/10) is counted for 10 seconds with a 4 second delay. An ATP standard curve is performed for all assays. MO should be greater than 100 pg/ml ATP. […] End assays are also sampled for pathology, proof that the final wells after treatment contain tumor not benign cells. […] All ATP-TCA assays were conducted as described previously herein in detail (see also, e.g., Andreotti et al., 1995, Cancer Res. 55:5276-82; Kurbacher et al., 1996, Breast Cancer Res. Treat., 41:161-70).

[2] = system: tumor of patient also suffering from ovarian cancer; test: ATP-TCA assay of tumor samples of patient two; conditions: for Initial Therapeutic Index: indexed as for patient one
Protocol: Briefly, the ATP-TCA assay is conducted as follows. First, aseptically obtained solid tumor specimens are dispersed using, e.g. surgical scissors and scalpels. Subsequently, tissue fragments of 0.5 to 2 mm in diameter are enzymatically dissociated into a cell suspension of single cells and small aggregates by incubation for 4-18 h in 5-10 ml sterile collagenase-containing enzyme preparation such as tumor dissociation enzyme preparation, TDE. Commercially available from Atlantic Scientific, Fort Lauderdale, Fla., or from DCS Innovative Diagnostic Systeme GmbH, Hamburg, Germany. Alternatively, tissue fragments are dissociated using 1.5 mg/ml collagenase H (Sigma Chemical, St. Lewis, Mo.) or by mechanical desegregation. (see, e.g., Myatt et al., 1997, Anticancer Drugs, 8:756-762) After filtration and ficoll-hypaque density centrifugation, e.g. (Lymphoprep®, ICN Flow, Meckenheim, Germany; Histopaque, Sigma Chemical, St. Louis, Mo.), the quality and viability of resultant single cell suspensions are determined e.g., by trypan blue dye exclusion (0.2% Merck, Darmstadt, Germany) and by subsequent cytological examination. A serum-free Complete Assay medium (CAM) available from DCS Innovative Diagnostik Systeme GmbH, Hamburg, Germany is added and cell suspensions then are adjusted to a final concentration of 1-2×10^5 viable cells per ml.
Drug assays can be performed in 96-well polypropylene microtiter plates (round-bottom). Test drug concentrations (TDC) are prepared directly on the plates by serial 1:2-dilutions of the individual stock solutions. Each drug is tested by continuous exposure in triplicate at a number, e.g., six different concentrations ranging from 6.25% to 200% of test drug concentration.
Subsequently, a sample, e.g. 100 μl of single cell suspension (i.e., 10,000- 20,000 cells) is added to each well. Cultures are incubated at 37° C. and 95% humidity in a 95% air, 5% CO2 atmosphere.
After 5-7 days of incubation, another cytological analysis is performed in untreated MO controls. Subsequently, intracellular ATP is extracted and stabilized. Then 50 μl aliquots of each lysate is then transferred to a liminometer, e.g. a LB-953 liminometer (Berthold, Wildbad, Germany). ATP is measured, e.g. by the “firefly” light reaction after automatically pipetting 55 μl of Luciferin-Luciferase-Reagent (Lu-Lu) to each cell extract. Luminescence response expressed as Relative Light Units (RLU=photons/10) is counted for 10 seconds with a 4 second delay. An ATP standard curve is performed for all assays. MO should be greater than 100 pg/ml ATP. Assays showing mean RLU values of less than 20,000 (MO), a MI/MO-ratio>0.01, or evidence of microbiological contamination are regarded as non-evaluable. End assays are also sampled for pathology, proof that the final wells after treatment contain tumor not benign cells.
All ATP-TCA assays were conducted as described previously herein in detail (see also, e.g., Andreotti et al., 1995, Cancer Res. 55:5276-82; Kurbacher et al., 1996, Breast Cancer Res. Treat., 41:161-70).

[3] = system: tumor of patient suffering from ovarian cancer; test: ATP-TCA assay of tumor samples of patient one; conditions: for Initial Therapeutic Index: tumor response curves ranked by AUC-1, high index = more effective
Protocol: Briefly, the ATP-TCA assay is conducted as follows. First, aseptically obtained solid tumor specimens are dispersed using, e.g. surgical scissors and scalpels. Subsequently, tissue fragments of 0.5 to 2 mm in diameter are enzymatically dissociated into a cell suspension of single cells and small aggregates by incubation for 4-18 h in 5-10 ml sterile collagenase-containing enzyme preparation such as tumor dissociation enzyme preparation, TDE. Commercially available from Atlantic Scientific, Fort Lauderdale, Fla., or from DCS Innovative Diagnostic Systeme GmbH, Hamburg, Germany. Alternatively, tissue fragments are dissociated using 1.5 mg/ml collagenase H (Sigma Chemical, St. Lewis, Mo.) or by mechanical desegregation. (see, […] al., 1997, Anticancer Drugs, 8:756-762) After filtration and ficoll-hypaque density centrifugation, e.g. (Lymphoprep®, ICN Flow, […], Germany; Histopaque, Sigma Chemical, St. […] A serum-free Complete Assay medium (CAM) available from DCS Innovative Diagnostik Systeme GmbH, Hamburg, Germany is added and cell suspensions then are adjusted to a final concentration of 1-2×10^5 viable cells per ml. […] Test drug concentrations (TDC) are prepared directly on the plates by serial 1:2-dilutions of the individual stock solutions. […] Appropriate controls, e.g., one with CAM, i.e., no inhibition control, (MO) and the other with Maximum ATP Inhibitor (MI) instead of the cytostatics, can be used in six wells of every culture plate. Subsequently, a sample, e.g. 100 μl of single cell suspension (i.e., 10,000- 20,000 cells) is added to each well. Cultures are incubated at 37° C. and 95% humidity in a 95% air, 5% CO2 atmosphere. After 5-7 days of incubation, another cytological analysis is performed in untreated MO controls. Subsequently, intracellular ATP is extracted and stabilized. Then 50 μl aliquots of each lysate is then transferred to a liminometer, e.g. a LB-953 liminometer (Berthold, Wildbad, Germany). ATP is measured, e.g. by the “firefly” light reaction after automatically pipetting 55 μl of Luciferin-Luciferase-Reagent (Lu-Lu) to each cell extract. Luminescence response expressed as Relative Light Units (RLU=photons/10) is counted for 10 seconds with a 4 second delay. An ATP standard curve is performed for all assays. […] End assays are also sampled for pathology, proof that the final wells after treatment contain tumor not benign cells. The following illustrates assignment of a Preliminary Rank or Order to a drug(s) or agent(s) based on the results of ATP-TCA assays of patient tumors presented in representative FIGS. 4A-C. All ATP-TCA assays were conducted as described previously herein in detail (see also, e.g., Andreotti et al., 1995, Cancer Res. 55:5276-82; Kurbacher et al., 1996, Breast Cancer Res. Treat., 41:161-70). FIG. 4A illustrates assay results were obtained with samples of a tumor of patient […] suffering from ovarian cancer. The results of an ATP-TCA assay are graphically presented (FIG. 4A) as a plot of (TDC) Test Drug Concentration (%) versus Tumor Growth Inhibition (%) (i.e., ATP test activity/ATP control×100%). (Carboplatin is abbreviated in FIGS. 4A-B as CBDCA.) The tumor response curves presented in FIG. 4A are ranked as described herein as if they were reference data. The numerical measure used is the AUC-I test. […] Alternative, the range from the least to the greatest response can be divided into 10 segments and the curves are assigned to their corresponding segments.

Compound: N.N.[Cl][Pt][Cl] [DDP, cisplatin]
- Initial Therapeutic Index [1]: 2
- activity against this tumor [1]: not significantly active

Compound: N.N.O=C([O-])C1(C(=O)[O-])CCC1.[Pt+2] [Carboplatin]
- activity against this patient's tumor [2]: at best moderately active
- Initial Therapeutic Index [2]: 5
- activity against this patient's tumor [3]: single best drug
- Initial Therapeutic Index [3]: 10

Compound: CC(=O)O[C@H]1C(=O)[C@@]2(C)[C@H]([C@H](OC(=O)c3ccccc3)[C@]3(O)C[C@H](OC(=O)[C@H](O)[C@@H](NC(=O)c4ccccc4)c4ccccc4)C(C)=C1C3(C)C)[C@]1(OC(C)=O)CO[C@@H]1C[C@@H]2O [Taxol, paclitaxel]
- activity against this patient's tumor [2]: single best drug
- Initial Therapeutic Index [2]: 8
- activity against this patient's tumor [3]: not significantly active
- Initial Therapeutic Index [3]: 2

Compound: Nc1ccn([C@@H]2O[C@H](CO)[C@@H](O)C2(F)F)c(=O)n1 [Gemcitabine, gemcitabine]
- activity against this patient's tumor [2]: at best moderately active
- Initial Therapeutic Index [2]: 3
- activity against this patient's tumor [3]: not significantly active
- Initial Therapeutic Index [3]: 3
- Initial Therapeutic Index [1]: 3
- activity against this tumor [1]: not significantly active
